Target: T1, ΔF508-CFTR (Homo sapiens, UniProt P13569, DEL508-508)
T1 construct: expressed in transfected cells
Experiment: Membrane potential optical (FRET/VIPR) assay, identification of correction compounds
Assay type: cell-based
Settings: Table 3, assay not given; for Emax: read-out: % Activity / % Efficacy (relative efficacy)
Outline: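 NIH3T3 mouse fibroblasts stably expressing ΔF508-CFTR were exposed to compound for 16 h at 37° C in serum-free medium, then loaded with DiSBAC2(3)/CC2-DMPE. After addition of 10 μM forskolin plus 20 μM genistein in Cl⁻-free gluconate bath (pH 7.4), depolarization from Cl⁻ efflux was read by FRET (VIPR II).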

T1 sequence (P13569 with tags, fused parts or gaps DEL508-508): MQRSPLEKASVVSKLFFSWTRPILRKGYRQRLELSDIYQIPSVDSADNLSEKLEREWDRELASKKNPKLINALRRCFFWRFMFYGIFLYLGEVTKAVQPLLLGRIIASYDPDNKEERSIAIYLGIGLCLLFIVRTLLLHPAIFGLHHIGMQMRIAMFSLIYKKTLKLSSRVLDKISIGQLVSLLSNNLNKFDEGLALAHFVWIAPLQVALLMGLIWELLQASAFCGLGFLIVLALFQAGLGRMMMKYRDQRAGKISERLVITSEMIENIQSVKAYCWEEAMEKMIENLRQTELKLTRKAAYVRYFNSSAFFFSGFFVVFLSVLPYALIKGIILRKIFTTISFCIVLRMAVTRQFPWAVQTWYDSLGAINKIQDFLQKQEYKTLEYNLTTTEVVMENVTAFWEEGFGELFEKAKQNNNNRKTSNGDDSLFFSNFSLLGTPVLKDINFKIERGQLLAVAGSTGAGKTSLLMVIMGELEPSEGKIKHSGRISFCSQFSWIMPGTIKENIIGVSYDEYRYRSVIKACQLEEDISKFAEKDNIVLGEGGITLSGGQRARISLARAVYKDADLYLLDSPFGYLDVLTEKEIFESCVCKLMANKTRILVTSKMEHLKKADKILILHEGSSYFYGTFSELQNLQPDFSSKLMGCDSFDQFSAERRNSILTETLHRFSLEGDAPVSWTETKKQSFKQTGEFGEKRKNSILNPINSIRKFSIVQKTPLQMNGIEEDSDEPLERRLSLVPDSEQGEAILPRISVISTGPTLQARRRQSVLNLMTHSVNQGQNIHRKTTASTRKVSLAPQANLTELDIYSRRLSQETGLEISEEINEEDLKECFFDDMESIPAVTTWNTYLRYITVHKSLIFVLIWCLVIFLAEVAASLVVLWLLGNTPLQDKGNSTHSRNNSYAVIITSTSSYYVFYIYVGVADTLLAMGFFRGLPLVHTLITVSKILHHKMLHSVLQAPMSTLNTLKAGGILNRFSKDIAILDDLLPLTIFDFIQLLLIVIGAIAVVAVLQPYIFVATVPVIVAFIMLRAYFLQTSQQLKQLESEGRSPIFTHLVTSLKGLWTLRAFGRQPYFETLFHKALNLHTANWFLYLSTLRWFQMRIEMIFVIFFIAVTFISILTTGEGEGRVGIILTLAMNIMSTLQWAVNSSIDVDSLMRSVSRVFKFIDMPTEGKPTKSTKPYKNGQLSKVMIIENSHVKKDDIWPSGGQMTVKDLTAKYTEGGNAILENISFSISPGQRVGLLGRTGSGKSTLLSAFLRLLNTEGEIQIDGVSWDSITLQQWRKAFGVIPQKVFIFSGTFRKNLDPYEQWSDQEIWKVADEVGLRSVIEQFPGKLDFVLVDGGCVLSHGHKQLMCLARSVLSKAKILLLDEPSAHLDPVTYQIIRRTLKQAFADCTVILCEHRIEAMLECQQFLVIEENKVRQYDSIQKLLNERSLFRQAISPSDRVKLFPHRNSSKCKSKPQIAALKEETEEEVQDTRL

% Activity / % Efficacy (relative efficacy) | EC50 | Emax | SMILES
+++ (“+++” means>100%) | < 10 µM |  | COC(c1cnc(NC(=O)C2(c3ccc4c(c3)OCO4)CC2)s1)c1ccccc1Cl (centres unmarked) [Example 260]
 | < 10 µM | > 100% | O=C(Nc1ncc(Cc2ccccc2Cl)s1)C1(c2cccc(F)c2)CCCCC1 [Example 305]
+++ (“+++” means>100%) | < 10 µM |  | O=C(Nc1nc(-c2ccccc2)cs1)C1(c2ccc3c(c2)OCO3)CC1 [Example 80]
 | < 10 µM | 25 to 100% | NC(c1cnc(NC(=O)C2(c3ccc4c(c3)OCO4)CC2)s1)c1ccccc1Cl (centres unmarked) [Example 475]
 | < 10 µM | > 100% | CS(=O)(=O)c1ccc(C(c2cnc(NC(=O)C3(c4ccc5c(c4)OCO5)CC3)s2)N2CCCC2)cc1 (centres unmarked) [Example 385]
 | < 10 µM | 25 to 100% | CN1CCN(c2cccc(C3(C(=O)Nc4ncc(Cc5ccccc5Cl)s4)CC3)c2)CC1 [Example 314]
 | < 10 µM | > 100% | CCCc1nc(NC(=O)C2(c3ccc4c(c3)OCO4)CC2)sc1C(=O)OCC [Example 108]
 | < 10 µM | > 100% | CC(=O)NCCNC(c1cnc(NC(=O)C2(c3ccc4c(c3)OCO4)CC2)s1)c1ccccc1Cl (centres unmarked) [Example 436]
++ (“++” means between 25% to 100%) | 10 to 25 µM |  | NC(=O)C1(C(=O)Nc2ncc(Cc3ccccc3Cl)s2)CC1 [Example 91]
 | 10 to 25 µM | > 100% | COC[C@@H]1CCCN1C(c1ccccc1)c1cnc(NC(=O)C2(c3ccc4c(c3)OCO4)CC2)s1 (some centres unmarked) [Example 347]
 | < 10 µM | > 100% | CCN(CC)C(c1ccccc1)c1cnc(NC(=O)C2(c3ccc4c(c3)OCO4)CC2)s1 (centres unmarked) [Example 372]
+++ (“+++” means>100%) | < 10 µM |  | COc1ccc(C2(C(=O)Nc3ncc(Sc4ccccc4C(=O)O)s3)CC2)cc1 [Example 104]
 | < 10 µM | > 100% | CS(=O)(=O)c1ccc(C(c2cnc(NC(=O)C3(c4ccc5c(c4)OCO5)CC3)s2)N2CCCCC2)cc1 (centres unmarked) [Example 388]
 | 10 to 25 µM | > 100% | O=C(Nc1ncc(CN2CC[C@H](O)C2)s1)C1(c2ccc3c(c2)OCO3)CC1 [Example 320]
 | < 10 µM | > 100% | O=C(Nc1ncc(Cc2ccccc2Cl)s1)C1(c2ccc(F)cc2)CCCC1 [Example 26]
+++ (“+++” means>100%) | < 10 µM |  | COc1ccc(C2(C(=O)Nc3ncc(Cc4ccncc4Cl)s3)CC2)cc1 [Example 262]
+++ (“+++” means>100%) | < 10 µM |  | CCCc1nc(NC(=O)C2(c3ccc(OC)cc3)CC2)sc1C(=O)OCC [Example 184]
 | 10 to 25 µM | > 100% | CC(C)(C)C(c1cnc(NC(=O)C2(c3ccc4c(c3)OCO4)CC2)s1)N1CC[C@@H](O)C1 (some centres unmarked) [Example 390]
 | 10 to 25 µM | > 100% | CC(C)(C)C(c1cnc(NC(=O)C2(c3ccc4c(c3)OCO4)CC2)s1)N1CCCCC1 (centres unmarked) [Example 383]
 | < 10 µM |  | CCOc1ccccc1C(N[C@@H](CO)CC(C)C)c1cnc(NC(=O)C2(c3ccc4c(c3)OCO4)CC2)s1 (some centres unmarked) [Example 476]
 | < 10 µM | > 100% | O=C(Nc1ncc(C(c2ccccc2Cl)N2CC[C@@H](O)C2)s1)C1(c2cccc(Cl)c2)CC1 (some centres unmarked) [Example 446]

% Activity / % Efficacy (relative efficacy) | EC50 | Emax | SMILES
 | < 10 µM | > 100% | CC(C)[C@H](CO)NC(c1cnc(NC(=O)C2(c3ccc4c(c3)OCO4)CC2)s1)c1ccccc1Cl (some centres unmarked) [Example 440]
 | < 10 µM | > 100% | O=C(Nc1ncc(C(NC2CCCC2)c2ccccc2Cl)s1)C1(c2ccc3c(c2)OCO3)CC1 (centres unmarked) [Example 414]
 |  | > 100% | CCOc1ccccc1C(NC(CO)CC(C)C)c1cnc(NC(=O)C2(c3ccc4c(c3)OCO4)CC2)s1 (centres unmarked) [Example 476]
+++ (“+++” means>100%) | < 10 µM |  | COc1ccc(C2(C(=O)Nc3ncc(Cc4ccccc4Cl)n3C)CC2)cc1 [Example 63]
 | < 10 µM | > 100% | O=C(Nc1ncc(C(NC2CC2)c2ccccc2Cl)s1)C1(c2ccc3c(c2)OCO3)CC1 (centres unmarked) [Example 415]
 | < 10 µM | 25 to 100% | COc1ccc(C2(C(=O)Nc3ncc(Sc4ccccc4N)s3)CC2)cc1 [Example 95]
++ (“++” means between 25% to 100%) | 25 to 60 µM |  | COc1cccc(C2(C(=O)Nc3ncc(Cc4ccccc4OC)s3)CC2)c1 [Example 67]
 | 10 to 25 µM | > 100% | CCN(CC)C(c1cnc(NC(=O)C2(c3ccc4c(c3)OCO4)CC2)s1)C(C)(C)C (centres unmarked) [Example 393]
+++ (“+++” means>100%) | < 10 µM |  | COc1ccc(C2(C(=O)Nc3ncc(C4(c5ccccc5OC)CC4)s3)CC2)cc1 [Example 243]
 | < 10 µM | > 100% | COc1ccccc1Cc1cnc(NC(=O)C2(c3ccc(Cl)cc3)CC2)s1 [Example 32]
+++ (“+++” means>100%) | < 10 µM |  | O=C(Nc1nc(-c2ccc(Cl)cc2Cl)cs1)C1(c2ccc3c(c2)OCO3)CC1 [Example 126]
 | < 10 µM | > 100% | COc1ccc(C2(C(=O)Nc3ncc(Cc4ccccc4OC)o3)CC2)cc1 [Example 156]
 | 10 to 25 µM | > 100% | CC(C)(C)C(c1cnc(NC(=O)C2(c3ccc4c(c3)OCO4)CC2)s1)N1CCCC1 (centres unmarked) [Example 391]
 | < 10 µM | > 100% | O=C1CC[C@@H](CO[C@H](c2cnc(NC(=O)C3(c4ccc5c(c4)OCO5)CC3)s2)c2ccccc2Cl)N1 [Example 256]
+++ (“+++” means>100%) | < 10 µM |  | COc1ccccc1Oc1cnc(NC(=O)C2(c3ccc4c(c3)OCO4)CC2)s1 [Example 94]
+++ (“+++” means>100%) | < 10 µM |  | C=CCN(C)C(c1cnc(NC(=O)C2(c3ccc4c(c3)OCO4)CC2)s1)c1ccccc1Cl (centres unmarked) [Example 218]
 | < 10 µM | > 100% | COc1ccc(C2(C(=O)Nc3ncc(C(c4ccccc4Cl)N4CC[C@@H](O)C4)s3)CC2)cc1 (some centres unmarked) [Example 420]
 | < 10 µM | 25 to 100% | O=C(Nc1ncc(Cc2ccccc2Cl)s1)C1(c2ccc(O)cc2)CC1 [Example 317]
++ (“++” means between 25% to 100%) | < 10 µM |  | CCCc1nc(NC(=O)C2(c3ccc4c(c3)OCO4)CC2)sc1C(=O)O [Example 191]
 | < 10 µM | > 100% | CC(C)(C)[C@H](CO)NC(c1cnc(NC(=O)C2(c3ccc4c(c3)OCO4)CC2)s1)c1ccccc1Cl (some centres unmarked) [Example 488]
 | < 10 µM | 25 to 100% | CS(=O)(=O)c1ccc(C2(C(=O)Nc3ncc(Cc4ccccc4Cl)s3)CC2)cc1 [Example 309]

% Activity / % Efficacy (relative efficacy) | EC50 | Emax | SMILES
 | 10 to 25 µM | 25 to 100% | CS(=O)(=O)c1ccc(C(c2cnc(NC(=O)C3(c4ccc5c(c4)OCO5)CC3)s2)N2CC[C@@H](O)C2)cc1 (some centres unmarked) [Example 378]
 | 10 to 25 µM | 25 to 100% | CN(C)C(c1ccc(S(C)(=O)=O)cc1)c1cnc(NC(=O)C2(c3ccc4c(c3)OCO4)CC2)s1 (centres unmarked) [Example 381]
+++ (“+++” means>100%) | < 10 µM |  | O=C(Nc1ncc(Sc2ccccc2)s1)C1(c2ccc3c(c2)OCO3)CC1 [Example 105]
 | < 10 µM | > 100% | O=C(Nc1ncc(C(c2ccc(Cl)cc2Cl)N2CC[C@@H](O)C2)s1)C1(c2ccc3c(c2)OCO3)CC1 (some centres unmarked) [Example 470]
 | < 10 µM | 25 to 100% | O=C(Nc1ncc(C(NCCCn2ccnc2)c2ccccc2Cl)s1)C1(c2ccc3c(c2)OCO3)CC1 (centres unmarked) [Example 408]
 | < 10 µM | > 100% | O=C(Nc1ncc(C(NC[C@@H]2CCCO2)c2ccccc2Cl)s1)C1(c2ccc3c(c2)OCO3)CC1 (some centres unmarked) [Example 434]
 | < 10 µM | > 100% | COc1cccc(C(c2cnc(NC(=O)C3(c4ccc5c(c4)OCO5)CC3)s2)N2CC[C@@H](O)C2)c1 (some centres unmarked) [Example 367]
 | 10 to 25 µM | > 100% | COc1ccccc1C(c1cnc(NC(=O)C2(c3ccc4c(c3)OCO4)CC2)s1)N1CCC(O)CC1 (centres unmarked) [Example 348]
 | < 10 µM | 25 to 100% | CCOc1ccccc1C(c1cnc(NC(=O)C2(c3ccc4c(c3)OCO4)CC2)s1)N1CCCC1 (centres unmarked) [Example 463]
 | < 10 µM | > 100% | COc1ccc(C2(C(=O)Nc3nc(-c4ccccc4OC)cs3)CC2)cc1 [Example 121]
+++ (“+++” means>100%) | < 10 µM |  | Cc1ccc(-c2csc(NC(=O)C3(c4ccc5c(c4)OCO5)CC3)n2)c(C)c1 [Example 127]
 | < 10 µM | > 100% | COc1ccc(C2(C(=O)Nc3ncc(Cc4ccc(Cl)cc4)s3)CC2)cc1 [Example 13]
 | < 10 µM | > 100% | O=C(Nc1ncc(C(c2cc(F)ccc2F)N2CC[C@@H](O)C2)s1)C1(c2ccc3c(c2)OCO3)CC1 (some centres unmarked) [Example 474]
 | < 10 µM | > 100% | CC(C)C[C@H](CO)NC(c1cnc(NC(=O)C2(c3ccc4c(c3)OCO4)CC2)s1)c1ccccc1Cl (some centres unmarked) [Example 438]
 | < 10 µM | > 100% | C[C@@H](O)CNC(c1cnc(NC(=O)C2(c3ccc4c(c3)OCO4)CC2)s1)c1ccccc1Cl (some centres unmarked) [Example 487]
 |  | > 100% | CCOc1ccccc1C(NC(CO)C(C)C)c1cnc(NC(=O)C2(c3ccc4c(c3)OCO4)CC2)s1 (centres unmarked) [Example 478]
+++ (“+++” means>100%) | < 10 µM |  | O=C(Nc1ncc(Cc2cccc(Cl)c2)o1)C1(c2ccc3c(c2)OCO3)CC1 [Example 166]
 | < 10 µM | > 100% | CCCC[C@H](CO)NC(c1cnc(NC(=O)C2(c3ccc4c(c3)OCO4)CC2)s1)c1ccccc1Cl (some centres unmarked) [Example 497]
+ (“+” means<25%) | 10 to 25 µM |  | O=C1CCCc2nc(NC(=O)C3(c4ccc5c(c4)OCO5)CC3)sc21 [Example 190]
